This passage reports IC50 results from patent publication US20140107109A1, “AMINO-DIHYDROTHIAZINE AND AMINO-DIOXIDO DIHYDROTHIAZINE COMPOUNDS AS BETA-SECRETASE ANTAGONISTS AND METHODS OF USE” (Amgen Inc., priority 2012, published 2014).

In assay [1] the target is Beta Secretase enzyme (BACE1) (Homo sapiens, UniProt P56817). Kind of assay: In vitro enzymatic BACE FRET assay. The class given is biochemical. The conditions noted are these: read-out: BACE1 FRET assay IC50. Put shortly:
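Readout: dequenched fluorescence (ex 488 nm/[…]) after neutralizing with Tris buffer. Reactions, begun by adding 50 nM quenched peptide substrate spanning the BACE cleavage site, were incubated one hour at pH 4.2 in 0.05 M acetate with 100 uM genapol and 10% final DMSO.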

For assay [2], the system named is Aβ40 in conditioned medium of cells stably expressing Amyloid Precursor Protein (APP). The assay can be described thus: In vitro BACE cell-based assay (HEK cell assay), Aβ40 sandwich ELISA. The conditions noted are these: Homo sapiens, HEK293. Put shortly: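 Aβ40 in conditioned medium was quantified by time-resolved fluorescence sandwich ELISA (pAb40 capture 3 h at 4 °C, biotin-6E10 detection 2 h at 4 °C) after 24 h compound exposure of APP-expressing cells. Doses spanned 10 points from 100 μM or 10 μM top, 0.1% DMSO; IC50 was derived from percent of control.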
(In an ELISA, binding on a coated surface is turned into a signal by an enzyme label.)

The target in the next assay is T1, Cathepsin D (Cat D) (Homo sapiens, UniProt P07339).
T1 construct: Recombinant Cat D was expressed in CHO cells; made in house; host or cells: CHO cells
Kind of assay: In vitro enzymatic Cathepsin D (Cat D) FRET assay. The class given is biochemical. The conditions noted are these: read-out: CatD IC50. In a few lines:
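FRET read-out: a fluorophore/quencher-labelled peptide substrate is cleaved by 9 nM Cat D (recombinant, CHO-expressed) following a one-hour preincubation with inhibitor dilutions in DMSO. Tris buffer added to neutralize pH ends the reaction before fluorescence measurement.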

Read-outs that look alike come from different tables or passages of the source.

T1 sequence (P07339 65-412, species assumed): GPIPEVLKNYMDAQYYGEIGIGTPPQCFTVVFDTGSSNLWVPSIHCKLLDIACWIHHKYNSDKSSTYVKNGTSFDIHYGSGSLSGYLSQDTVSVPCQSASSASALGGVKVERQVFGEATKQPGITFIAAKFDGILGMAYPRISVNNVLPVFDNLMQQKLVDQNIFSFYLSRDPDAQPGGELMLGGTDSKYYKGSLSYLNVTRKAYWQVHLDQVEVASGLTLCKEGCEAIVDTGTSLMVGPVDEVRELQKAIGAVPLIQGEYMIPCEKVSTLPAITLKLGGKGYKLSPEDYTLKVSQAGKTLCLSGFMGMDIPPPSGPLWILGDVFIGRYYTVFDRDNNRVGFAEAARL
Beta Secretase enzyme (BACE1), sequence (P56817 46-501): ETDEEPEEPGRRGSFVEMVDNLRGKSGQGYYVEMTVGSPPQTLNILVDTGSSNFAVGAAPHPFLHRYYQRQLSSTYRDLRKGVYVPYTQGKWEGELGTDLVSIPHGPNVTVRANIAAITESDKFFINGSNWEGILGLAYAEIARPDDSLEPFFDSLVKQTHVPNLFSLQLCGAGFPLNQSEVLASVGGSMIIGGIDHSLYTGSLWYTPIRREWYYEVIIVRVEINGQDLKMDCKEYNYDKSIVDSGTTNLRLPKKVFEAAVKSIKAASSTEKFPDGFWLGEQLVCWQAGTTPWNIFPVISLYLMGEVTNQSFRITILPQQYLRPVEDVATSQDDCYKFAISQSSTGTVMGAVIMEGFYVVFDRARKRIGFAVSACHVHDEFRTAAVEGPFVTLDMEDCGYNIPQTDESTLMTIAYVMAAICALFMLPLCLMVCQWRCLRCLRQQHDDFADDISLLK

For `CC1(C)C(N)=N[C@](C)(c2cc(Nc3ncnc4cc(OCC5CC5)cnc34)ccc2F)CS1(=O)=O` [Example 104, (R)-5-amino-3-(5-((7-(cyclopropylmethoxy)pyrido[3,2-d]pyrimidin-4-yl)amino)-2-fluorophenyl)-3,6,6-trimethyl-3,6-dihydro-2H-1,4-thiazine 1,1-dioxide], the IC50 in assay [1] (average IC50, enzyme assay) came out at 0.00154 µM; in assay [2] (average IC50, cell assay), 0.0052 µM; at Cathepsin D (Cat D), 358 µM.
For `COc1ncc(NC(=O)c2ccccn2)cc1[C@]1(C)CS(=O)(=O)C(C)(C)C(N)=N1` [Example 424, N-(5-((3R)-5-amino-3,6,6-trimethyl-1,1-dioxido-3,6-dihydro-2H-1,4-thiazin-3-yl)-6-methoxy-3-pyridinyl)-2-pyridinecarboxamide] the same measures were 0.298 µM, 0.131 µM and 567 µM.
For `CC1(C)C(N)=N[C@](CF)(c2cc(NC(=O)c3cnc(OCC4CC4)cn3)ccc2F)CS1(=O)=O` [Example 156, (S)—N-(3-(5-amino-3-(fluoromethyl)-6,6-dimethyl-1,1-dioxido-3,6-dihydro-2H-1,4-thiazin-3-yl)-4-fluorophenyl)-5-(cyclopropylmethoxy)pyrazine-2-carboxamide] the same measures were 0.0005 µM, 0.0049 µM and 835 µM.
In the case of `COCc1cc(Cl)cnc1C(=O)Nc1ccc(F)c([C@@]2(C)N=C(N)C(C)(C)S(=O)(=O)C2F)c1` (stereo partly drawn) [Example 335, N-(3-((3R)-5-amino-2-fluoro-3,6,6-trimethyl-1,1-dioxido-3,6-dihydro-2H-1,4-thiazin-3-yl)-4-fluorophenyl)-5-chloro-3-(methoxymethyl)-2-pyridinecarboxamide], the half-inhibitory concentration (IC50) turned out to be 0.00056 µM in assay [1] (average IC50, enzyme assay); 0.0068 µM in assay [2] (average IC50, HEK cell assay); 311 µM at Cathepsin D (Cat D).
For `CC1(C)C(N)=N[C@](C)(c2cc(Oc3ncc(C(N)=O)cc3F)ccc2F)CS1(=O)=O` [Example 300, 6-(3-((3R)-5-amino-3,6,6-trimethyl 1,1-dioxido-3,6-dihydro-2H-1,4-thiazin-3-yl)-4-fluorophenoxy)-5-fluoro-3-pyridinecarboxamide], the IC50 stood at 0.897 µM in assay [1] (average IC50, enzyme assay); 1.18 µM in assay [2] (average IC50, HEK cell assay); 717 µM at Cathepsin D (Cat D).
For `CC1(C)C(N)=N[C@](C)(c2cc(NC(=O)c3cc4ccccc4cn3)ccc2F)CS1(=O)=O` [Example 343, N-(3-((3R)-5-amino-3,6,6-trimethyl-1,1-dioxido-3,6-dihydro-2H-1,4-thiazin-3-yl)-4-fluorophenyl)-3-isoquinolinecarboxamide] the same measures were 0.00511 µM, 0.0107 µM and 234 µM.
Take `CC1(C)C(N)=N[C@](C)(c2cc(Oc3ccc(C(F)(F)F)cn3)ccc2F)CS1(=O)=O` [Example 279, (5R)-5-(2-fluoro-5-((5-(trifluoromethyl)-2-pyridinyl)oxy)phenyl)-2,2,5-trimethyl-5,6-dihydro-2H-1,4-thiazin-3-amine 1,1-dioxide]: the concentration for half-maximal inhibition (IC50) amounted to 5.6 µM in assay [1] (average IC50, enzyme assay); 2.09 µM in assay [2] (average IC50, cell assay); 188 µM at Cathepsin D (Cat D).
Consider `Cc1cc(OC(F)F)cnc1C(=O)Nc1ccc(F)c([C@@]2(C)N=C(N)C3(CCC3)S(=O)(=O)[C@@H]2F)c1` [Example 132, N-(3-((6S,7R)-9-amino-6-fluoro-7-methyl-5,5-dioxido-5-thia-8-azaspiro[3.5]non-8-en-7-yl)-4-fluorophenyl)-5-(difluoromethoxy)-3-methylpicolinamide], for which the IC50 in assay [1] came to 0.00297 µM; in assay [2], 0.0058 µM; on Cathepsin D (Cat D), 61.8 µM.
Turning to `CC1(C)C(N)=N[C@](CF)(c2cc(Nc3nccc4nc(C(F)(F)F)cnc34)ccc2F)CS1(=O)=O` [Example 234, N-(3-((3S)-5-amino-3-(fluoromethyl)-6,6-dimethyl-1,1-dioxido-3,6-dihydro-2H-1,4-thiazin-3-yl)-4-fluorophenyl)-2-(trifluoromethyl)pyrido[3,4-b]pyrazin-5-amine], the IC50 in assay [1] (average IC50, enzyme assay) is 0.00203 µM; in assay [2] (average IC50, cell assay), 0.105 µM; at Cathepsin D (Cat D) it was > 14.8 µM.
On to `CC1(C)C(N)=N[C@](C)(c2cc(Nc3nccc4nc(OCC#N)cnc34)ccc2F)CS1(=O)=O` [Example 443, ((5-((3-((3R)-5-amino-3,6,6-trimethyl-1,1-dioxido-3,6-dihydro-2H-1,4-thiazin-3-yl)-4-fluorophenyl)amino)pyrido[3,4-b]pyrazin-2-yl)oxy)acetonitrile], for which the IC50 amounted to 0.00287 µM in assay [1] (average IC50, enzyme assay); 0.004 µM in assay [2] (average IC50, cell assay); 346 µM at Cathepsin D (Cat D).
For `COc1cnc2c(Nc3ccc(F)c([C@]4(CF)CS(=O)(=O)C(C)(C)C(N)=N4)c3)ncc(F)c2c1` [Example 159, (S)-5-amino-3-(2-fluoro-5-((5-fluoro-3-methoxy-1,7-naphthyridin-8-yl)amino)phenyl)-3-(fluoromethyl)-6,6-dimethyl-3,6-dihydro-2H-1,4-thiazine 1,1-dioxide] the same measures were 0.00055 µM, 0.0285 µM and 159 µM.
For `CC1(C)C(N)=N[C@](CF)(c2cc(Nc3ncc(F)c4cc(OCC5CCC5)cnc34)ccc2F)CS1(=O)=O` [Example 434, N-(3-((3S)-5-amino-3-(fluoromethyl)-6,6-dimethyl-1,1-dioxido-3,6-dihydro-2H-1,4-thiazin-3-yl)-4-fluorophenyl)-3-(cyclobutylmethoxy)-5-fluoro-1,7-naphthyridin-8-amine] the same measures were 0.0015 µM, 0.341 µM and 32.3 µM.
For the compound `CC1[C@@](C)(c2cc(NC(=O)c3ccc(Cl)cn3)ccc2F)N=C(N)[C@](C)(F)S1(=O)=O` (stereo partly drawn) [Example 339, N-(3-((3R,6R)-5-amino-6-fluoro-2,3,6-trimethyl-1,1-dioxido-3,6-dihydro-2H-1,4-thiazin-3-yl)-4-fluorophenyl)-5-chloro-2-pyridinecarboxamide], the IC50 came to 0.0181 µM in assay [1] (average IC50, enzyme assay); 0.196 µM in assay [2] (average IC50, HEK cell assay); 109 µM on Cathepsin D (Cat D).
In the case of `CC1(C)C(N)=N[C@](C)(c2cc(Oc3ccc(F)cn3)ccc2F)CS1(=O)=O` [Example 275, (5R)-5-(2-fluoro-5-((5-fluoro-2-pyridinyl)oxy)phenyl)-2,2,5-trimethyl-5,6-dihydro-2H-1,4-thiazin-3-amine 1,1-dioxide], the 50% inhibitory concentration (IC50) in assay [1] (average IC50, enzyme assay) was found to be 0.84 µM; in assay [2] (average IC50, cell assay) it was 0.424 µM; on Cathepsin D (Cat D) it was 364 µM.
In the case of `CC1(C)C(N)=N[C@](CF)(c2cc(NC(=O)c3ccc(OCC#CCF)cn3)ccc2F)CS1(=O)=O` [Example 389, N-(3-((3S)-5-amino-3-(fluoromethyl)-6,6-dimethyl-1,1-dioxido-3,6-dihydro-2H-1,4-thiazin-3-yl)-4-fluorophenyl)-5-((4-fluoro-2-butyn-1-yl)oxy)-2-pyridinecarboxamide], the figures for the IC50 (in assay [1]; in assay [2]; on Cathepsin D (Cat D)) were 0.00026 µM, 0.0014 µM and 268 µM, respectively.
For the compound `CC1(C)C(N)=N[C@](C)(c2cc(Oc3nccc4ccsc34)ccc2F)CS1(=O)=O` [Example 291, (5R)-5-(2-fluoro-5-(thieno[2,3-c]pyridin-7-yloxy)phenyl)-2,2,5-trimethyl-5,6-dihydro-2H-1,4-thiazin-3-amine 1,1-dioxide], the half-inhibitory concentration (IC50) in assay [1] (average IC50, enzyme assay) amounted to 0.517 µM; in assay [2] (average IC50, cell assay) it was 0.914 µM; on Cathepsin D (Cat D) it was 242 µM.
Take `CC1(C)C(N)=N[C@](C)(c2cc(Oc3cccc(C(F)(F)F)n3)ccc2F)CS1(=O)=O` [Example 269, (5R)-5-(2-fluoro-5-((6-(trifluoromethyl)-2-pyridinyl)oxy)phenyl)-2,2,5-trimethyl-5,6-dihydro-2H-1,4-thiazin-3-amine 1,1-dioxide]: the IC50 is 0.248 µM in assay [1] (average IC50, enzyme assay); 0.574 µM in assay [2] (average IC50, cell assay); 132 µM at Cathepsin D (Cat D).
Take `CC1(C)C(N)=N[C@](C)(c2cc(Nc3csc4cc(C#N)cnc34)ccc2F)CS1(=O)=O` [Example 73, (R)-3-((3-(5-Amino-3,6,6-trimethyl-1,1-dioxido-3,6-dihydro-2H-1,4-thiazin-3-yl)-4-fluorophenyl)amino)thieno[3,2-b]pyridine-6-carbonitrile]: the IC50 in assay [1] was 0.002 µM; in assay [2] (Aβ40, 24 h incubation), 0.0016 µM; on Cathepsin D (Cat D), 27.3 µM.
For the compound `CC1(C)C(N)=N[C@](C)(c2cc(Oc3cc(-c4ccncc4)ccn3)ccc2F)CS1(=O)=O` [Example 290, (5R)-5-(5-(4,4′-bipyridin-2-yloxy)-2-fluorophenyl)-2,2,5-trimethyl-5,6-dihydro-2H-1,4-thiazin-3-amine 1,1-dioxide], the 50% inhibitory concentration (IC50) in assay [1] (average IC50, enzyme assay) was 0.328 µM; in assay [2] (average IC50, cell assay), 0.318 µM; on Cathepsin D (Cat D), 826 µM.
`C[C@]1(F)C(N)=N[C@](C)(c2cc(NC(=O)c3ncc(C(F)F)cc3Cl)ccc2F)CS1(=O)=O` [Example 326, N-(3-((3R,6R)-5-amino-6-fluoro-3,6-dimethyl-1,1-dioxido-3,6-dihydro-2H-1,4-thiazin-3-yl)-4-fluorophenyl)-3-chloro-5-(difluoromethyl)-2-pyridinecarboxamide]: the IC50 was determined as 0.00277 µM in assay [1] (average IC50, enzyme assay); 0.0597 µM in assay [2] (average IC50, HEK cell assay); 979 µM on Cathepsin D (Cat D).

A word on the IC50: it is the concentration at which inhibition is half-maximal.
